The target of the experiment is D(2) dopamine receptor (Rattus norvegicus, UniProt P61169). Put plainly: Binding affinity against the Dopamine receptor D2 in rat striatum by using [3H]spiperone radioligand. The experiment is classed as tissue-based.
Chain of D(2) dopamine receptor (P61169 whole entry): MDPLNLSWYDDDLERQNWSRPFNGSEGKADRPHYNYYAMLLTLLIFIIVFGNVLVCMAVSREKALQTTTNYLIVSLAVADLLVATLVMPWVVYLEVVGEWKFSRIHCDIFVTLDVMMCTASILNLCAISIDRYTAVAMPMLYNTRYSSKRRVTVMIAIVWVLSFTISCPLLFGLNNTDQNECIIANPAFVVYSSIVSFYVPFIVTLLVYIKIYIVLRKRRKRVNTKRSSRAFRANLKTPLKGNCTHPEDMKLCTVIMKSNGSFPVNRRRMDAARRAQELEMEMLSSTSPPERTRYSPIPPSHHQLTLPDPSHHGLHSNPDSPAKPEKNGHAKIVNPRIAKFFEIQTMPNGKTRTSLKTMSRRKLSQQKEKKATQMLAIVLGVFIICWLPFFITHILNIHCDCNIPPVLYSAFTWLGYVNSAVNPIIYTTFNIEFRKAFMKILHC

As usually defined, the IC50 is the concentration that inhibits the measured activity by half. Lower therefore signals greater potency. The compound `OC(CCCN1CCN(c2ncc(F)cn2)CC1)c1ccc(F)cc1` (stereo unspecified) [BMY-14802] gave a half-maximal inhibitory concentration (IC50) of 4.9 µM.

The values are drawn from ChEMBL document CHEMBL1126398, “(5S)-3-aryl-5-(1-piperidinylmethyl)-2-oxazolidinones, a new class of potential neuroleptics with a high affinity for sigma receptors” (Bioorg Med Chem Lett, 1992).
